# Measured values as given in patent publication US11787780B2 (CORCEPT THERAPEUTICS INCORPORATED, priority 2020, dated 2023).
# pIC50: −log10 of the molar value.
# Target: glucocorticoid receptor (GR) recombinant ligand binding domain (LBD) (Homo sapiens (Human), UniProt P04150)
# Test: GR binding fluorescence polarisation (FP) assay
# Conditions: displacement of fluorescently tagged ligand
# Protocol: Binding of test compounds to the glucocorticoid receptor (GR) is determined using a fluorescence polarisation (FP) assay utilising a recombinant ligand binding domain (LBD) of GR. The test compounds are assessed by their ability to displace a fluorescently tagged ligand and detection of the resulting decrease in fluorescence polarisation.
# glucocorticoid receptor (GR) recombinant ligand binding domain (LBD), sequence (P04150 524-758): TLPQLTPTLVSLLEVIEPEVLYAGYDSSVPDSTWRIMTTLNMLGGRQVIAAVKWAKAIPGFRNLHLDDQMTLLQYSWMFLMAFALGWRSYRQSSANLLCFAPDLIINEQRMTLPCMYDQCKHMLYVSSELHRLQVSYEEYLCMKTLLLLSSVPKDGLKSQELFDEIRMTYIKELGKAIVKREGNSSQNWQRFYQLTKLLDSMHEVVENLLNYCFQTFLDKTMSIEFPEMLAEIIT
row,pIC50,Compound
1,5.71,"C[C@@H]1CN(C(=O)c2ccccc2)CCN1c1ccc2c(cnn2-c2ccc(F)cc2)c1 [Example 2, (R)-(4-(1-(4-fluorophenyl)-1H-indazol-5-yl)-3-methylpiperazin-1-yl)(phenyl)methanone]"
2,6.69,"CCCn1cc(S(=O)(=O)N2CCN(c3ccc4c(cnn4-c4ccc(F)cc4)c3)C3(CC3)C2)cn1 [Example 3, 1-(4-fluorophenyl)-5-(7-((1-propyl-1H-pyrazol-4-yl)sulfonyl)-4,7-diazaspiro[2.5]octan-4-yl)-1H-indazole]"
3,8.70,"CCCn1cc(S(=O)(=O)N[C@H]2CCN(c3cc4cnn(-c5ccc(F)cc5)c4cc3C)C2)cn1 [Example 4, (S)—N-(1-(1-(4-fluorophenyl)-6-methyl-1H-indazol-5-yl)pyrrolidin-3-yl)-1-propyl-1H-pyrazole-4-sulfonamide]"
4,6.90,"CCCn1cc(S(=O)(=O)N(C)[C@H]2CCN(c3cc4cnn(-c5ccc(F)cc5)c4cc3C)C2)cn1 [Example 5, (S)—N-(1-(1-(4-fluorophenyl)-6-methyl-1H-indazol-5-yl)pyrrolidin-3-yl)-N-methyl-1-propyl-1H-pyrazole-4-sulfonamide]"
5,5.21,"Cc1cc2c(cnn2-c2ccc(F)cc2)cc1N1CCN(S(C)(=O)=O)CC1=O [Example 7, 1-(1-(4-fluorophenyl)-6-methyl-1H-indazol-5-yl)-4-(methylsulfonyl)piperazin-2-one]"
6,6.28,"CCCn1cc(S(=O)(=O)N2CC[C@@H](c3ccc4c(cnn4-c4ccc(F)cc4)c3)C[C@H]2C)cn1 [Example 9, 1-(4-fluorophenyl)-5-((2R,4R)-2-methyl-1-((1-propyl-1H-pyrazol-4-yl)sulfonyl)piperidin-4-yl)-1H-indazole]"
7,6.59,"CCCn1cc(S(=O)(=O)N2CC=C(c3cc4cnn(-c5ccc(F)cc5)c4cc3C)C[C@H]2C)cn1 [Example 11, (R)-1-(4-fluorophenyl)-6-methyl-5-(2-methyl-1-((1-propyl-1H-pyrazol-4-yl)sulfonyl)-1,2,3,6-tetrahydropyridin-4-yl)-1H-indazole]"
8,6.63,"CCCn1cc(S(=O)(=O)N2CC[C@@H](c3cc4cnn(-c5ccc(F)cc5)c4cc3C)C[C@H]2C)cn1 [Example 12, 1-(4-fluorophenyl)-6-methyl-5-((2R,4R)-2-methyl-1-((1-propyl-1H-pyrazol-4-yl)sulfonyl)piperidin-4-yl)-1H-indazole]"
9,7.09,"CCCn1cc(S(=O)(=O)N2CC[C@H](c3cc4cnn(-c5ccc(F)cc5)c4cc3C)C[C@H]2C)cn1 [Example 13, 1-(4-fluorophenyl)-6-methyl-5-((2R,4S)-2-methyl-1-((1-propyl-1H-pyrazol-4-yl)sulfonyl)piperidin-4-yl)-1H-indazole]"
10,6.45,"O=S(=O)(c1cnn(CC2CC2)c1)N1CCN(c2ccc3c(cnn3-c3ccc(F)cc3)c2)C[C@H]1CO [Example 14, (S)-(1-((1-(cyclopropylmethyl)-1H-pyrazol-4-yl)sulfonyl)-4-(1-(4-fluorophenyl)-1H-indazol-5-yl)piperazin-2-yl)methanol]"
11,6.34,"COC[C@@H]1CN(c2ccc3c(cnn3-c3ccc(F)cc3)c2)CCN1S(=O)(=O)c1cnn(CC2CC2)c1 [Example 15, (S)-5-(4-((1-(cyclopropylmethyl)-1H-pyrazol-4-yl)sulfonyl)-3-(methoxymethyl)piperazin-1-yl)-1-(4-fluorophenyl)-1H-indazole]"
12,6.05,"CCCn1cc(S(=O)(=O)N2CCC(C(=O)OCC)(c3ccc4c(cnn4-c4ccc(F)cc4)c3)CC2)cn1 [Example 21, Ethyl 4-(1-(4-fluorophenyl)-1H-indazol-5-yl)-1-((1-propyl-1H-pyrazol-4-yl)sulfonyl)piperidine-4-carboxylate]"
13,6.07,"CCCn1cc(S(=O)(=O)N2CCC(C(=O)N3CCCC3)(c3cc4cnn(-c5ccc(F)cc5)c4cc3C)CC2)cn1 [Example 22, (4-(1-(4-fluorophenyl)-6-methyl-1H-indazol-5-yl)-1-((1-propyl-1H-pyrazol-4-yl)sulfonyl)piperidin-4-yl)(pyrrolidin-1-yl)methanone]"
14,7.17,"Cn1cc(S(=O)(=O)C2CCN(c3ccc4c(cnn4-c4ccc(F)cc4)c3)CC2)cn1 [Example 33, 1-(4-fluorophenyl)-5-(4-((1-methyl-1H-pyrazol-4-yl)sulfonyl)piperidin-1-yl)-1H-indazole]"
15,5.96,Cn1cc(S(=O)(=O)N2CCN(c3ccc4c(cnn4-c4ccc(F)cc4)c3)[C@H](Cc3ccccc3)C2)cn1 [Example 34]
16,5.74,C[C@@H]1CN(S(=O)(=O)C2CCCC2)CCN1c1ccc2c(cnn2-c2ccc(F)cc2)c1 [Example 35]
17,5.45,C[C@H]1CN(S(=O)(=O)c2cnn(C)c2)CCN1c1ccc2c(cnn2-c2ccc(F)cc2)c1 [Example 36]
18,6.40,C[C@@H]1CN(c2ccc3c(cnn3-c3ccc(F)cc3)c2)CCN1S(=O)(=O)c1cnn(C)c1 [Example 37]
19,5.71,C[C@H]1CN(c2ccc3c(cnn3-c3ccc(F)cc3)c2)CCN1S(=O)(=O)c1cnn(C)c1 [Example 38]
20,6.26,C[C@@H]1CN(c2ccc3c(cnn3-c3ccc(F)cc3)c2)CCN1S(=O)(=O)c1ccc(F)c(F)c1 [Example 40]
21,6.03,Cn1cc(S(=O)(=O)N2CCN(c3ccc4c(cnn4-c4ccc(F)cc4)c3)C[C@H]2Cc2ccccc2)cn1 [Example 41]
22,5.64,CC(C)C[C@@H]1CN(c2ccc3c(cnn3-c3ccc(F)cc3)c2)CCN1S(=O)(=O)c1cnn(C)c1 [Example 42]
23,6.25,CC1(C)CN(c2ccc3c(cnn3-c3ccc(F)cc3)c2)CCN1S(C)(=O)=O [Example 45]
24,5.95,CCCn1cc(S(=O)(=O)N2CCN(c3ccc4c(cnn4-c4ccc(F)cc4)c3)CC2(C)C)cn1 [Example 46]
25,5.85,CS(=O)(=O)N1C[C@@H]2C[C@H]1CN2c1ccc2c(cnn2-c2ccc(F)cc2)c1 [Example 47]
26,5.08,CCCn1cc(S(=O)(=O)N2CCN(c3ccc4c(cnn4-c4ccc(F)cc4)c3C)C[C@H]2C)cn1 [Example 49]

row,pIC50,Compound
1,6.44,C[C@@H]1CN(S(C)(=O)=O)[C@@H](C)CN1c1ccc2c(cnn2-c2ccc(F)cc2)c1 [Example 51]
2,6.15,COC(=O)C1CN(c2ccc3c(cnn3-c3ccc(F)cc3)c2)CCN1S(=O)(=O)c1cnn(CC2CC2)c1 (stereo not drawn) [Example 52]
3,6.61,C[C@@H]1CN(c2ccc3c(cnn3-c3ccc(F)cc3)c2)CCN1S(=O)(=O)c1cnn(C2CCOCC2)c1 [Example 53]
4,6.85,Cc1nn(C2CCCC2)cc1S(=O)(=O)N1CCN(c2ccc3c(cnn3-c3ccc(F)cc3)c2)C[C@H]1C [Example 54]
5,7.68,CCCn1cc(S(=O)(=O)N2C[C@H](C)N(c3ccc4c(cnn4-c4ccc(F)cc4)c3)C[C@H]2C)cn1 [Example 55]
6,6.60,CCCn1cc(S(=O)(=O)N2CCN(c3ccc4c(cnn4-c4ccc(F)cc4)c3)C[C@H]2C)c(C)n1 [Example 57]
7,6.37,C[C@@H]1CN(S(C)(=O)=O)[C@H](C)CN1c1ccc2c(cnn2-c2ccc(F)cc2)c1 [Example 62]
8,6.67,CCCNS(=O)(=O)N1CCN(c2ccc3c(cnn3-c3ccc(F)cc3)c2)C[C@H]1C [Example 63]
9,6.82,CC(C)Cn1cc(S(=O)(=O)N2CCN(c3ccc4c(cnn4-c4ccc(F)cc4)c3)C[C@H]2C)cn1 [Example 64]
10,6.37,CCCn1cc(S(=O)(=O)N2CCN(c3ccc4c(cnn4-c4ccc(F)cc4)c3)CC23CCC3)cn1 [Example 66]
11,5.94,CCCn1cc(S(=O)(=O)N2CCN(c3cc4cnn(-c5ccc(F)cc5)c4cn3)CC23CC3)cn1 [Example 69]
12,6.62,CCCn1cc(S(=O)(=O)N2CCN(c3cnc4c(cnn4-c4ccc(F)cc4)c3)CC23CC3)cn1 [Example 71]
13,5.43,CCCn1cc(S(=O)(=O)N2CCN(c3ccc4c(cnn4-c4ccc(F)cc4)n3)CC23CC3)cn1 [Example 72]
14,7.18,CCCn1cc(S(=O)(=O)N2CCN(c3cc4nnn(-c5ccc(F)cc5)c4cc3C)CC23CC3)cn1 [Example 74]
15,6.49,CCCn1cc(S(=O)(=O)N2CCN(c3cc4cnn(-c5ccc(OC)cc5)c4cc3C)C[C@H]2C)cn1 [Example 75]
16,7.08,CCCn1cc(S(=O)(=O)N2CCN(c3cc4cnn(-c5ccc(F)c(F)c5)c4cc3C)C[C@H]2C)cn1 [Example 76]
17,5.98,CCCn1cc(S(=O)(=O)N2CCN(c3cc4cnn(-c5ccc(OC)nc5)c4cc3C)C[C@H]2C)cn1 [Example 77]
18,5.14,Cc1cc2c(cnn2-c2ccc(F)cc2)cc1N1CCC2(CCCN2S(C)(=O)=O)CC1 [Example 88]
19,6.36,CCCn1cc(S(=O)(=O)N2CCCC23CCN(c2cc4cnn(-c5ccc(F)cc5)c4cc2C)CC3)cn1 [Example 89]
20,6.21,Cc1cc2c(cnn2-c2ccc(F)cc2)cc1N1CCC2(CCN(S(C)(=O)=O)CC2)C1 [Example 95]
21,5.59,Cc1cc2c(cnn2-c2ccc(F)cc2)cc1N1CCC2(CCN(S(=O)(=O)c3cnn(C)c3)CC2)C1 [Example 96]
22,5.74,CC(=O)N1CCN(c2ccc3c(cnn3-c3ccc(F)cc3)c2)[C@H](C)C1 [Example 97]
23,6.13,CC(=O)N1CCN(c2ccc3c(cnn3-c3ccc(F)cc3)c2)C[C@H]1Cc1ccccc1 [Example 98]
24,6.05,CC(=O)N1CCN(c2ccc3c(cnn3-c3ccc(F)cc3)c2)C[C@H]1CC(C)C [Example 99]
25,6.57,Cc1cc2c(cnn2-c2ccc(F)cc2)cc1N1CCN(C(=O)Nc2ccccc2)C2(CC2)C1 [Example 102]

row,Compound,pIC50
1,1-(4-fluorophenyl)-5-(4-(methoxymethyl)-1-((1-propyl-1H-pyrazol-4-yl)sulfonyl)piperidin-4-yl)-1H-indazole [Example 23],5.89
2,CS(=O)(=O)N1CC2CC(C1)N2c1ccc2c(cnn2-c2ccc(F)cc2)c1 [Example 48],5.39
3,CCCn1cc(S(=O)(=O)N2C3CCC2CN(c2cc4cnn(-c5ccc(F)cc5)c4cc2C)C3)cn1 [Example 83],6.29
